Data reported in patent US20070110817A1, “Biological active blood serum obtained by electrostimulation” (Owen Holding Ltd., priority 2004, published 2007).

Test system: rats
Experiment: Escape reaction latency after zytisin with or without serum
Type: in vivo, rat
Protocol: During the formation and the long-term maintenance of information a significant role is attributed to H-cholino-ceptive mechanisms. 30 animals who were taught for five days how to dive under a “bell” were subdivided into three groups.
A physiological solution of zytisin (a H-cholino-ceptive antagonist of the brain) was injected with a dose of 1 mg/kg body weight into the peritoneal cavity 30 minutes prior to the test of the animals of the first group (ten rats).
Biologically active serum was administered in a dose of 100 mg/kg body weight to the animals of the second group (ten rats) and 30 minutes later a zytisin solution was administered with a dose of 1 mg/kg body weight.
The third animal group (control—ten rats) received a 1 ml injection of a physiological salt solution.
The complex behaviour of the animals was tested according to above-indicated method 48 hours after the injection of the indicated substances.

For `O=c1cccc2n1C[C@@H]1CNC[C@H]2C1` [zytisin], the “slowing of the “escape reaction” in comparison to control animals” value (48 hours after zytisin 1 mg/kg) was 3 fold and the “Latency period for the reaction of rats to the situation” value (after 48 h, zytisin 1 mg/kg, serum 100 mg/kg 30 minutes before zytisin, control 13.33 ± 0.58) was 40.0 ± 14 s.
